# According to patent US9354225B2 (priority 2009, dated 2016):
# Like-named read-outs stand apart in the source and are kept apart here.
# Tested on: PrPsc signal in buffy coat (scrapie blood leukocytes)
# Format: cell-based, sheep
# Details: for PrPsc signal from the buffy coat (OD): additive 5 mM final in whole blood at collection, stored 24 h at 4° C. or room temperature; for preservation of the PrPsc harbored in the buffy coat of blood: scrapie sheep of both ARQ/ARQ and VRQ/VRQ genotypes, additive in blood, stored for at least 24 h
# [1] = pre-clinical scrapie sheep #1 (ARQ/ARQ), FIG. 1
# [2] = pre-clinical scrapie sheep #2 (ARQ/ARQ), FIG. 2
Molecule,percentage loss of PrPsc signal relative to sample processed immediately,PrPsc signal from the buffy coat (OD) [1],PrPsc signal from the buffy coat (OD) [2],"detection signal in buffy coat fractions of blood samples (scrapie animals, samples processed 24 hours post-collection)",preservation of the PrPsc harbored in the buffy coat of blood
oxidized L-glutathione,lack of effect,–,–,–,–
N[C@@H](CCC(=O)N[C@@H](CS)C(=O)NCC(=O)O)C(=O)O [L-glutathione (reduced)],–,preserve the PrPsc signal,preserve the PrPsc signal,can preserve the detection signal,allow for the preservation of the PrPsc
"O=C(O)CN(CCOCCOCCN(CC(=O)O)CC(=O)O)CC(=O)O [EGTA, ethylene glycol tetraacetic acid]",–,preserve the PrPsc signal,preserve the PrPsc signal,–,allow for the preservation of the PrPsc
